# Test results published in patent US10077436B2, “Beta-glucosidase enzymes for increased biomass saccharification” (Edeniq, Inc., priority 2013, dated 2018).
# What was measured:
# [1] = test system: A-BG (Accellerase® BG from DuPont), commercial beta-glucosidase; test: BG kinetics, pNPG hydrolysis assay with glucose as competitive inhibitor, A-BG; format: biochemical
# Method: The kinetic properties of beta glucosidase are important for cellulosic hydrolysis, since in commercial situations a wide range of substrate concentrations and different product inhibition conditions will be encountered. In this example, a Michaelis-Menten kinetics model was used to describe BG kinetics.
# (§1) One pNPG unit is defined as the amount of enzyme that produces 1 μmol of pNP per min. Briefly, to determine BG activity, 25 μL of diluted enzyme in 200 mM sodium acetate buffer (pH 5.0) was mixed with 25 μL of the same buffer and 25 μL of RO water (or glucose solution for the kinetic study) and the mixture was preincubated at 50° C. for 5 min. The reaction was initiated by adding 25 μL of 10 mM pNPG in 200 mM sodium acetate buffer (pH 5.0) and the mixture was incubated at 50° C. for 10 min. The reaction was then terminated by adding 100 μL of 0.25 M sodium carbonate, and the amount of pNP produced was determined by measuring absorbance at 405 nm using a predetermined calibration curve.
# The range of substrate concentration was chosen to show detectable activity at the lowest concentration and saturation stage at high substrate concentration.
# (§2) To determine the kinetic properties, a competitive inhibition mechanism was hypothesized as proposed in the literature (Chauve et al, 2010; Krogh et al, 2010). The Michaelis-Menten equation with the competitive inhibition term can be expressed in Equation (1), where [S] is the substrate concentration (mM), [I] is the inhibitor concentration (mM), V is the rate of product formation (mM/min), Vmax is the maximal rate of product formation (mM/min), Km is the Michaelis-Menten constant and Ki is the inhibition constant. The turnover number, Kcat, can be calculated by Equation (2), where [Et] is the total amount of enzyme.
# (§3) Conventionally, linearization methods can be used to determine the kinetic parameters based on Equation (1). Three common linear plots used are Lineweaver-Burke, Eadie-Hofstee and Hanes plots (Rogers and Gibon, 2009). However, these linearized versions of the Michaelis-Menten equation often produce substantial errors in parameter estimation. […] All of the activity data at different substrate levels and different inhibitor levels were fit simultaneously according to the full nonlinear equation for competitive enzyme inhibition as expressed in Equation (1). Thus, Vmax, Km and Ki can be determined simultaneously from this fitting process, and Km/Ki can then be calculated. Kcat can be obtained by Equation (2) and Kcat/Km can be calculated accordingly.
# The above experimental data were fit in the competitive inhibition model as expressed in Equation (1) by simultaneous nonlinear regression.
# [2] = test system: S-BG (Novozymes SP188 from Sigma), commercial beta-glucosidase; test: BG kinetics, pNPG hydrolysis assay with glucose as competitive inhibitor, S-BG; format: biochemical; settings: pH 5.0, 50° C.
# From the text: The kinetic properties of beta glucosidase are important for cellulosic hydrolysis, since in commercial situations a wide range of substrate concentrations and different product inhibition conditions will be encountered. In this example, a Michaelis-Menten kinetics model was used to describe BG kinetics. To determine these kinetic properties, BG activity assays using standard substrates pNPG and cellobiose were employed. yEdQ745-BG (wild type) and yEdQ885-BG (improved), were compared with two commercial BGs, A-BG (Accellerase®) BG from Dupont) and S-BG (Novozymes SP188 from Sigma).
# as §1, with “BG activity assay using pNPG is one of the two commonly used standard assays to measure BG activity, which utilizes hydrolysis of p-nitrophenyl-β-D-glucopyranoside (pNPG) by BG into a yellow colored product, p-nitrophenol (pNP), that has a strong absorbance at 405 nm. One” for “One”
# The range of substrate concentration was chosen to show detectable activity at the lowest concentration and saturation stage at high substrate concentration. The upper limit of inhibitor (glucose) level was chosen to get as close as possible to the real conditions during saccharification (˜4% w/v glucose) and have a detectable residual activity.
# as §2, §3
# The above experimental data were fit in the competitive inhibition model as expressed in Equation (1) by simultaneous nonlinear regression. The order of maximum velocity (Vmax) is A-BG>yEdQ885-BG>S-BG≈yEdQ745-BG. […] Nevertheless, the in-house BGs have much higher dissociation constant for inhibitor (Ki), indicating higher tolerance to product inhibition. Consistent with Vmax, the order of turnover number (Kcat) is A-BG>yEdQ885-BG>S-BG≈yEdQ745-BG. With much lower Km and much higher Kcat, A-BG has a considerably higher catalytic efficiency (Kcat/Km) than the other enzymes. The catalytic efficiency of S-BG and yEdQ885-BG is quite close, which is higher than that of yEdQ745-BG. […]
smiles,measurement,setting,value
OC[C@H]1OC(O)[C@H](O)[C@@H](O)[C@@H]1O (stereo partly shown) [glucose],loss of activity under glucose inhibition,"[1]; 9 g/L initial glucose, 0.08 mM pNPG",lost activity completely
same,maximum relative activity under glucose inhibition,"[1]; 36 g/L initial glucose, high pNPG concentration, relative to maximum activity without glucose",1.5%
same,loss of activity under glucose inhibition,"[1]; 36 g/L initial glucose, pNPG below 1.875 mM",activity was completely lost
same,Km/Ki,"[1]; inhibitor influence, Km for pNPG / Ki for glucose, pH 5.0, 50° C.",0.22
same,Ki,"[1]; pNPG substrate, competitive inhibition, pH 5.0, 50° C.",460 ± 50 µM
same,Km/Ki,"[2]; inhibitor influence, Km for pNPG / Ki for glucose",0.52
same,Ki,"[2]; pNPG substrate, competitive inhibition",810 ± 110 µM
